Test [1] is described as follows: Rumen protected niacin, response to epinephrine (Epi) challenge. The test is classed as in vivo, Holstein cows. From the text: Niacin may modulate lipolytic responses in adipose tissue but is highly degradable in the rumen so that oral administration leads to unknown quantities absorbed. We determined responses to epinephrine (Epi) challenge as affected by three levels of protected niacin (PN) or unprotected niacin (UN) in the diet or infused abomasally.
Six multiparous rumen-cannulated Holstein cows (BW=656 kg; 128±23 days in milk) were used in a completely randomized 6×6 Latin Square with an extra period to quantify carryover effects. Periods consisted of 7 days for adaptation followed by 7 days for measurements. Cows were fed according to NRC (2001) recommendations. Treatments were: CON (no niacin), INF (abomassal infusion of 12 g UN), N12 (12 g UN), BN3 (3 g PN), BN6 (6 g PN), and BN12 (12 g PN). Treatments N12, BN3, BN6, and BN12 were top-dressed on the Total Mixed Ration (TMR) twice daily. Treatment INF was divided in 5 equal portions and infused every 4 hours. Cows receiving treatments other than INF were infused with the same volume of water at the same times.
On day 12, cows received an i.v, infusion of Epi (1.4 μg/kg BW). […] Total area under the curve (AUC) responses of nonesterified Fatty Acids (NEFA) and glucose concentrations in plasma were calculated using the trapezoidal rule.

Test [2] is described as follows: Rumen protected niacin, effect upon milk production. The note with it: 12 g top-dressed on TMR twice daily (N12 / BN12). The test is classed as in vivo, Holstein cows. The text has this:
Six multiparous rumen-cannulated Holstein cows (BW=656 kg) after peak lactation (128±23 days in milk) were assigned to 1 of 6 treatments in a completely randomized 6×6 Latin Square with an extra period to measure carry-over effects. Periods consisted of a 7-day (d 1-7) adaptation period followed by a 7-day (d 8-14) measurement period. Cows were fed according to NRC (2001) recommendations to meet or exceed requirements. Treatments were: CON (no niacin), INF (abomassal infusion of 12 g unprotected niacin (UN)), N12 (12 g UN), BN3 (3 g PN), BN6 (6 g PN), and BN12 (12 g PN). Treatments N12, BN3, BN6, and BN 12 were top-dressed on the Total Mixed Ration (TMR) twice daily. The daily dose of treatment INF was divided in 5 equal portions and infused during the day every 4 hours. Cows receiving treatments other than INF were infused with the same volume of water at the same time.

This is an account of results in US9511062B2, “Compacted rumen protected nutrient pellets and method of manufacture” (Qualitech, Inc., priority 2011, dated 2016).

On to `O=C(O)c1cccnc1` [UN, niacin], for which, in test [1] (12 g top-dressed on TMR twice daily (N12 / BN12), i.v. Epi 1.4 μg/kg BW on day 12, plasma), the “Time to peak NEFA concentration” value was 22.1 ± 3.2 min. In addition, the “glucose AUC” value in test [1] (abomasal infusion of 12 g (INF) compared with N12, Epi challenge, P=0.04) is recorded as “greater AUC than N12”. In addition, in test [2], the “dry matter intake (DMI)” value turned out to be 24.3 ± 1 kg. For the same molecule, the “milk fat/protein ratio (F/P)” value in test [2] (P=0.03) was 1.15±0.09. Moreover, the “Feed efficiency (FE=energy-corrected milk/DMI)” value in test [2] (P=0.04) was 1.5±0.1. For the same molecule, in test [2] (P=0.06), the Milk yield is 37.1 ± 2.3 kg.
